Data published in ChEMBL document CHEMBL2439969, “Replacement of Thr32 and Gln34 in the C-terminal neuropeptide Y fragment 25-36 by cis-cyclobutane and cis-cyclopentane β-amino acids shifts selectivity toward the Y(4) receptor” (J Med Chem, 2013).
Residues, ends and D or L forms follow the SMILES beside them.

Assays:
[1] = target: T1, Neuropeptide Y receptor type 4 (Homo sapiens, UniProt P50391); experiment: Binding affinity to human Y4 receptor
[2] = target: T2, Neuropeptide Y receptor type 1 (Homo sapiens, UniProt P25929); experiment: Displacement of Cy5-pNPY from human Y1 receptor expressed in HEL cells after 90 to 120 mins by flow cytometry; assay type: cell-based
T2 sequence (P25929 whole entry): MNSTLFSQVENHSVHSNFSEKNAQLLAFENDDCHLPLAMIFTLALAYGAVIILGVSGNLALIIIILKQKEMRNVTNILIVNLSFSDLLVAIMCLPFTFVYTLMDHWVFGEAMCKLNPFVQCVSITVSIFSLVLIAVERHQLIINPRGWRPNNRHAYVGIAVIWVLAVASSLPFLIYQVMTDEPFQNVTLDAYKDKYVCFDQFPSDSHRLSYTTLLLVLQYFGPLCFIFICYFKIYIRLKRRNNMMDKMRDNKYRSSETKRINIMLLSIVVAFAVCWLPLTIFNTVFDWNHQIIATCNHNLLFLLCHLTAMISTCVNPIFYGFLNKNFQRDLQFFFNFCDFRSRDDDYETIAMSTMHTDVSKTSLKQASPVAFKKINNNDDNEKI

[3] = target: T3, Neuropeptide Y receptor type 2 (Homo sapiens, UniProt P49146); experiment: Displacement of Cy5-pNPY from human Y2 receptor expressed in CHO cells after 90 to 120 mins by flow cytometry; assay type: cell-based
T3 sequence (P49146 whole entry): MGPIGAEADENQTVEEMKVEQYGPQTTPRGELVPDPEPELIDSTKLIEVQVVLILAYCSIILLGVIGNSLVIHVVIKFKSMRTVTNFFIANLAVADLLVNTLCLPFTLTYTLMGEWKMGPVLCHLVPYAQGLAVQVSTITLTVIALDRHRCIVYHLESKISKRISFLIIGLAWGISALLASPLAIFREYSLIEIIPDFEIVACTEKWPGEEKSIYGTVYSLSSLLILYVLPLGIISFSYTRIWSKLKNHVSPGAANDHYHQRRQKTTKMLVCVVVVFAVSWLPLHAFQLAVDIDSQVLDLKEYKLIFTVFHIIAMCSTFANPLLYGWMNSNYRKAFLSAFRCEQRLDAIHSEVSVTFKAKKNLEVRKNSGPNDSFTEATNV

[4] = target: T4, Neuropeptide Y receptor type 5 (Homo sapiens, UniProt Q15761); experiment: Displacement of Cy5-pNPY from human Y5 receptor expressed in human HEC-1B cells after 90 to 120 mins by flow cytometry; assay type: cell-based
T4 sequence (Q15761 whole entry): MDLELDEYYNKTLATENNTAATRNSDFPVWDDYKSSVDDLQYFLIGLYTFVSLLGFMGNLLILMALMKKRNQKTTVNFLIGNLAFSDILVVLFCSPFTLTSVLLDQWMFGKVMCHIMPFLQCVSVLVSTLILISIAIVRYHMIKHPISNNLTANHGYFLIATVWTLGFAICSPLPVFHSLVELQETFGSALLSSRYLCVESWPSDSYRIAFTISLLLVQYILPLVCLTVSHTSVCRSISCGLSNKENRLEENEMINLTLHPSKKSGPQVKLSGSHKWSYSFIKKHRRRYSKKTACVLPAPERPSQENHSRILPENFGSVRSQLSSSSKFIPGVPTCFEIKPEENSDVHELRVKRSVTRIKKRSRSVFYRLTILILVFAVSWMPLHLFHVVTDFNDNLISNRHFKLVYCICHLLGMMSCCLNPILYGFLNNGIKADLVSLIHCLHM

[5] = target: T1, Neuropeptide Y receptor type 4; experiment: Agonist activity at human Y4 receptor
[6] = target: T1, Neuropeptide Y receptor type 4; experiment: Displacement of Cy5-[K4]hPP from human Y4 receptor expressed in CHO cells after 90 to 120 mins by flow cytometry; assay type: cell-based

T1 sequence (P50391 whole entry): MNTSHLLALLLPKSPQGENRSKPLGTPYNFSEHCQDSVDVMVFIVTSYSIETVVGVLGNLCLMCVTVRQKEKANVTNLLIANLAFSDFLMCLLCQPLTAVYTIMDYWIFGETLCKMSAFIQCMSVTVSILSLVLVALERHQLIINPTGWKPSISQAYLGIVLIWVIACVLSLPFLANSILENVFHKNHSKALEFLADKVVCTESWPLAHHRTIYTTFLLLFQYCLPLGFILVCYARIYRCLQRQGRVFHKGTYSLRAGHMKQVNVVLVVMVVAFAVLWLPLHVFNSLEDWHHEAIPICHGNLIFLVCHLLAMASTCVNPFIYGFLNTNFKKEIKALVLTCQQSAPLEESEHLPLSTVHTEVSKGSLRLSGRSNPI

CC[C@H](C)[C@H](NC(=O)[C@H](CC(C)C)NC(=O)[C@H](CCSC)NC(=O)[C@H](CC(N)=O)NC(=O)[C@@H](NC(=O)[C@H](Cc1ccc(O)cc1)NC(=O)[C@H](CCCNC(=N)N)NC(=O)[C@H](CCCNC(=N)N)NC(=O)[C@H](CC(C)C)NC(=O)[C@H](CC(=O)O)NC(=O)[C@H](C)NC(=O)[C@H](C)NC(=O)[C@H](Cc1ccc(O)cc1)NC(=O)[C@H](CCC(N)=O)NC(=O)[C@H](C)NC(=O)[C@H](CCSC)NC(=O)[C@H](CCC(N)=O)NC(=O)[C@H](CCC(=O)O)NC(=O)[C@@H]1CCCN1C(=O)[C@@H](NC(=O)[C@H](C)NC(=O)[C@H](CC(N)=O)NC(=O)[C@H](CC(=O)O)NC(=O)CNC(=O)[C@@H]1CCCN1C(=O)[C@H](Cc1ccc(O)cc1)NC(=O)[C@@H](NC(=O)[C@@H]1CCCN1C(=O)[C@H](CCC(=O)O)NC(=O)[C@H](CC(C)C)NC(=O)[C@@H]1CCCN1C(=O)[C@H](C)N)C(C)C)[C@@H](C)O)[C@@H](C)O)C(=O)N[C@@H](CCCNC(=N)N)C(=O)N1CCC[C@H]1C(=O)N[C@@H](CCCNC(=N)N)C(=O)N[C@H](N)Cc1ccc(O)cc1 (HELM PEPTIDE1{A.P.L.E.P.V.Y.P.G.D.N.A.T.P.E.Q.M.A.Q.Y.A.A.D.L.R.R.Y.T.N.M.L.I.R.P.R.[N[C@H](Cc1ccc(O)cc1)N[*:1]]}$$$$V2.0)
Ki [1]: 0.53 nM | Ki [2]: 440 nM | Ki [3]: > 5000 nM | Ki [4]: 17 nM | EC50 [5]: 11 nM | Ki [6]: > 1000 nM
